Reference: the supplement of paper PMC10307832

Assays:
Experiment in all cases: relative viability (nuclei count vs DMSO), 5 days (fraction); higher = more cells survive
201T = tested on: 201T
Outline: (§1)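 Values are medians from duplicate plates. Each reflects relative viability, defined as the nuclei count of treated wells over that of vehicle wells. Lung cancer cell lines in 1536-well plates were pin-tool dosed one day after seeding with one drug alone or with a fixed anchor-drug dose plus five library-drug doses (not always all listed) in √10 steps, then fixed, stained and imaged at 4× after 5 days.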

COR-L 105 = tested on: COR-L 105
Outline: as §1

COR-L23 = tested on: COR-L23
Outline: as §1

EMC-BAC-2 = tested on: EMC-BAC-2
Outline: as §1

HCC-15 = tested on: HCC-15
Outline: as §1

HCC-366 = tested on: HCC-366
Outline: as §1

LC-2-ad = tested on: LC-2-ad
Outline: as §1

NCI-H1437 = tested on: NCI-H1437
Outline: as §1

NCI-H1755 = tested on: NCI-H1755
Outline: as §1

NCI-H1792 = tested on: NCI-H1792
Outline: as §1

NCI-H1915 = tested on: NCI-H1915
Outline: as §1

NCI-H2009 = tested on: NCI-H2009
Outline: as §1

NCI-H2023 = tested on: NCI-H2023
Outline: as §1

NCI-H2347 = tested on: NCI-H2347
Outline: as §1

NCI-H23 = tested on: NCI-H23
Outline: as §1

NCI-H358 = tested on: NCI-H358
Outline: as §1

NCI-H650 = tested on: NCI-H650
Outline: as §1

PC-14 = tested on: PC-14
Outline: as §1

SK-MES-1 = tested on: SK-MES-1
Outline: as §1

## CN1CCN(CCOc2cc(OC3CCOCC3)c3c(Nc4c(Cl)ccc5c4OCO5)ncnc3c2)CC1 [Saracatinib] + C[C@@H](Oc1cc(-c2cnn(C3CCNCC3)c2)cnc1N)c1c(Cl)ccc(F)c1Cl [Crizotinib] (partner 1 µM)
201T; first compound 0.02 µM
  relative viability: 1.05
201T; first compound 0.2 µM
  relative viability: 0.946
201T; first compound 0.6325 µM
  relative viability: 0.962
201T; first compound 2 µM
  relative viability: 0.862
COR-L 105; first compound 0.02 µM
  relative viability: 0.881
COR-L 105; first compound 0.2 µM
  relative viability: 0.763
COR-L 105; first compound 0.6325 µM
  relative viability: 0.459
COR-L 105; first compound 2 µM
  relative viability: 0.252
COR-L23; first compound 0.02 µM
  relative viability: 0.65
COR-L23; first compound 0.2 µM
  relative viability: 0.52
COR-L23; first compound 0.6325 µM
  relative viability: 0.658
COR-L23; first compound 2 µM
  relative viability: 0.558
EMC-BAC-2; first compound 0.02 µM
  relative viability: 0.701
EMC-BAC-2; first compound 0.2 µM
  relative viability: 0.72
EMC-BAC-2; first compound 0.6325 µM
  relative viability: 0.652
EMC-BAC-2; first compound 2 µM
  relative viability: 0.463
HCC-15; first compound 0.02 µM
  relative viability: 0.817
HCC-15; first compound 0.2 µM
  relative viability: 0.693
HCC-15; first compound 0.6325 µM
  relative viability: 0.805
HCC-15; first compound 2 µM
  relative viability: 0.765
HCC-366; first compound 0.02 µM
  relative viability: 0.547
HCC-366; first compound 0.6325 µM
  relative viability: 0.435
HCC-366; first compound 2 µM
  relative viability: 0.182
LC-2-ad; first compound 0.02 µM
  relative viability: 0.434
LC-2-ad; first compound 0.2 µM
  relative viability: 0.41
LC-2-ad; first compound 0.6325 µM
  relative viability: 0.513
LC-2-ad; first compound 2 µM
  relative viability: 0.371
NCI-H1437; first compound 0.02 µM
  relative viability: 0.912
NCI-H1437; first compound 0.2 µM
  relative viability: 0.866
NCI-H1437; first compound 0.6325 µM
  relative viability: 0.865
NCI-H1437; first compound 2 µM
  relative viability: 0.943
NCI-H1755; first compound 0.02 µM
  relative viability: 0.883
NCI-H1755; first compound 0.2 µM
  relative viability: 0.536
NCI-H1755; first compound 0.6325 µM
  relative viability: 0.779
NCI-H1755; first compound 2 µM
  relative viability: 0.662
NCI-H1792; first compound 0.02 µM
  relative viability: 0.94
NCI-H1792; first compound 0.2 µM
  relative viability: 0.922
NCI-H1792; first compound 0.6325 µM
  relative viability: 1.15
NCI-H1792; first compound 2 µM
  relative viability: 0.684
NCI-H1915; first compound 0.02 µM
  relative viability: 0.913
NCI-H1915; first compound 0.2 µM
  relative viability: 0.846
NCI-H1915; first compound 0.6325 µM
  relative viability: 0.916
NCI-H1915; first compound 2 µM
  relative viability: 0.875
NCI-H2009; first compound 0.02 µM
  relative viability: 1.03
NCI-H2009; first compound 0.2 µM
  relative viability: 0.756
NCI-H2009; first compound 0.6325 µM
  relative viability: 0.896
NCI-H2009; first compound 2 µM
  relative viability: 0.691
NCI-H2023; first compound 0.02 µM
  relative viability: 0.769
NCI-H2023; first compound 0.2 µM
  relative viability: 0.428
NCI-H2023; first compound 0.6325 µM
  relative viability: 0.391
NCI-H2023; first compound 2 µM
  relative viability: 0.356
NCI-H2347; first compound 0.02 µM
  relative viability: 0.732
NCI-H2347; first compound 0.2 µM
  relative viability: 0.686
NCI-H2347; first compound 0.6325 µM
  relative viability: 1.03
NCI-H2347; first compound 2 µM
  relative viability: 0.486
NCI-H23; first compound 0.02 µM
  relative viability: 0.528
NCI-H23; first compound 0.6325 µM
  relative viability: 0.557
NCI-H23; first compound 2 µM
  relative viability: 0.419
NCI-H358; first compound 0.02 µM
  relative viability: 0.54
NCI-H358; first compound 0.2 µM
  relative viability: 0.611
NCI-H358; first compound 0.6325 µM
  relative viability: 0.376
NCI-H358; first compound 2 µM
  relative viability: 0.251
NCI-H650; first compound 0.02 µM
  relative viability: 0.597
NCI-H650; first compound 0.2 µM
  relative viability: 0.643
NCI-H650; first compound 0.6325 µM
  relative viability: 0.639
NCI-H650; first compound 2 µM
  relative viability: 0.622
PC-14; first compound 0.02 µM
  relative viability: 0.993
PC-14; first compound 0.2 µM
  relative viability: 0.555
PC-14; first compound 0.6325 µM
  relative viability: 0.424
PC-14; first compound 2 µM
  relative viability: 0.167
SK-MES-1; first compound 0.02 µM
  relative viability: 1.05
SK-MES-1; first compound 0.2 µM
  relative viability: 0.858
SK-MES-1; first compound 0.6325 µM
  relative viability: 0.825
SK-MES-1; first compound 2 µM
  relative viability: 0.517
